Earlier results in patent US20240315940A1, “Topical Nourishing/Antimicrobial Compositions” (Laboratory Skin Care, Inc., priority 2021, published 2024).

Test system: bacteria, fungi, Pseudomonas aeruginosa, Pseudomonas capacia, Staphylococcus aureus, Escherichia coli, Candida albicans, Aspergillus niger, Salmonella …
Details: whole genera of microorganisms

Oc1cc(Cl)ccc1Oc1ccc(Cl)cc1Cl [triclosan]
effectiveness against microorganisms: effective
